Results: article PMC13031062 (Acta Pharmaceutica Sinica. B, 2025)
Where two headings read alike, the source gives them in different places. One block for each compound: values may come before it.

What was measured:
[1] = molecular target: T1, acyl-CoA synthetase long-chain family member 3 (ACSL3) (Homo sapiens, UniProt O95573); assay: microscale thermophoresis; type: binding
[2] = molecular target: T1, acyl-CoA synthetase long-chain family member 3 (ACSL3); assay: microscale thermophoresis; type: binding; remark: listed apart in the source
[3] = molecular target: T1, acyl-CoA synthetase long-chain family member 3 (ACSL3); assay: LC-MS of OA-CoA formed by recombinant ACSL3; type: biochemical
[4] = molecular target: T1, acyl-CoA synthetase long-chain family member 3 (ACSL3); assay: microscale thermophoresis; type: binding; remark: listed apart in the source

T1 sequence (O95573 whole entry): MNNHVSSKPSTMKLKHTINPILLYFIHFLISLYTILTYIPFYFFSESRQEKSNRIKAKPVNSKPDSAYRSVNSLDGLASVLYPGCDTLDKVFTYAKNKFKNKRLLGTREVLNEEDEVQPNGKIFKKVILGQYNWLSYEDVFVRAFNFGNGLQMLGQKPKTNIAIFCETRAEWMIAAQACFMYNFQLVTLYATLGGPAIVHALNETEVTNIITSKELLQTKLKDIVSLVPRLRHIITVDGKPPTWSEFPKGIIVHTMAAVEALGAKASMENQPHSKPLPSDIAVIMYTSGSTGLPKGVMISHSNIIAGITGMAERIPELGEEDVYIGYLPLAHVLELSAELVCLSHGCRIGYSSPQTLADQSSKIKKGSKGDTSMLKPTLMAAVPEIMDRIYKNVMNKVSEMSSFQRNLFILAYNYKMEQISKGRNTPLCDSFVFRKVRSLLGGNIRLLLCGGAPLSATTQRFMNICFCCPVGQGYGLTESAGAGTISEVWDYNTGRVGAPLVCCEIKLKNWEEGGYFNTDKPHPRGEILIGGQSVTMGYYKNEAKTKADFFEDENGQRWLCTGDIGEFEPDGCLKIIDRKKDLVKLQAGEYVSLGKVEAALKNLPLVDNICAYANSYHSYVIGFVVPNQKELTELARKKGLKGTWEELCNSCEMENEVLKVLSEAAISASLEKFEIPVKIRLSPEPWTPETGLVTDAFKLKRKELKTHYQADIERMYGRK

Kd [1]: 12.8 µM
SMILES: CC1=C(/C=C/C(C)=C/C=C/C(C)=C/C(=O)O)C(C)(C)CCC1 [ATRA, all-trans retinoic acid]

Kd [2]: 1.28 µM
SMILES: CNC(=O)/C=C(C)/C=C/C=C(C)/C=C/C1=C(C)CCCC1(C)C [D3, (2E,4E,6E,8E)-N,3,7-trimethyl-9-(2,6,6-trimethylcyclohex-1-en-1-yl)nona-2,4,6,8-tetraenamide]

SMILES: CCCCCCCC/C=C\CCCCCCCC(=O)O [OA, oleic acid]
LC-MS of OA-CoA formed by recombinant ACSL3 [3]: VA analogues promoted acylation reaction with OA as substrate in the presence of ACSL3

Kd [4]: 1.85 µM
SMILES: CC1=C(/C=C/C(C)=C/C=C/C(C)=C/CO)C(C)(C)CCC1 [VA, vitamin A]
